Entries after “also recorded” stand apart in the source; their conditions may differ.
Tests used:
[1] = tested on: recombinant adeno-associated virus (AAV); conditions: reagent alone, room temperature, 2 hours
lentivirus = lentivirus inactivation by photosensitizer and UV light
recombinant AAV = assay: AAV particle size by dynamic light scattering; format: physicochemical
SARS-CoV-2 = SARS-CoV-2 inactivation in Mirasol device; conditions: 50 μM riboflavin
[2] = rats
MERS CoV = conditions: riboflavin 50 micromolar and UV light, six minutes, plasma; cited from earlier work

Compound	infectious titer of recombinant AAV [1]	time to inactivation of lentivirus (lentivirus; 1.5 mM psoralen and UV light)	change in particle size distribution (recombinant AAV; 1.5 mM psoralen and UV light)	Log Reduction in viral titer (SARS-CoV-2; 100 Joules UV in 19 seconds, 100 mLs, limit of detection 1.0 Log per mL)	inactivation of SARS-CoV-2 (SARS-CoV-2; about 100 Joules UV, to the limit of detection)	toxicity of residual riboflavin remaining after viral inactivation [2]	MERS coronavirus titers (MERS CoV)	time to complete inactivation of lentivirus (lentivirus; 50 μM riboflavin in the presence of UV light) [min]	average hydrodynamic radius of viral aggregates (recombinant AAV; 50 μM riboflavin and UV light, later time points)
O=c1ccc2cc3ccoc3cc2o1 [psoralen]	reduce the infectious titer	approximately 2 hours	No significant change in particle size distribution						
Cc1cc2nc3c(=O)[nH]c(=O)nc-3n(C[C@H](O)[C@H](O)[C@H](O)CO)c2cc1C [riboflavin]	reduce the infectious titer			greater than 4.2 Log	Complete inactivation; also recorded: completely inactivated	does not induce toxicity	reduction	≤ 20	greater than 60 nm
